# In patent US10336788B2, “Inhibition of cardiac fibrosis in myocardial infarction” (Moerae Matrix, Inc., priority 2014, dated 2019):
# No end group written: not given here.
# Tests used:
# HL1 cells = assay: LDH release assay in HL1 cells (1% hypoxia or normoxia); format: cell-based, mouse; details: for LDH release: 1% hypoxia
# Experimental: H9C2 is a myoblast cell line derived from rat myocardium obtained from ATCC® (CRL-1446, ATCC, Manassas, Va.) and cultured according to the recommended protocols. Briefly, cells were maintained at 37° C. with 5% CO2 in DMEM supplemented with 10% fetal bovine serum and antibiotics (100 U/ml penicillin, […] streptomycin) and split at a ratio of 1:4 using 0.05% trypsin every 36 hours. HL-1 cells were obtained from Dr. William Claycomb and cultured according to the published protocols [Claycomb W C, Lanson N A, Jr., Stallworth B S, Egeland D B, Delcarpio J B, Bahinski A, et al. HL-1 cells: a cardiac muscle cell line that contracts and retains phenotypic characteristics of the adult cardiomyocyte. Proc. Natl Acad. Sci. USA. 1998; 95:2979-84; White S M, Constantin P E, Claycomb W C. Cardiac physiology at the cellular level: use of cultured HL-1 cardiomyocytes for studies of cardiac muscle cell structure and function. Am. J. Physiol. Heart Circul. Physiol. 2004; 286:H823-9]. Briefly, cells were cultured in Claycomb medium (JRH Biosciences, USA) supplemented with 10% fetal bovine serum (JRH Biosciences), 2 mM L-glutamine (Gibco, Grand Island, N.Y.), 100 μM norepinephrine (Sigma, USA), 100 U/mL penicillin, and 100 μg/mL streptomycin (Gibco) in flasks precoated with fibronectin and gelatin (Sigma), then incubated at 37° C. in 5% CO2. Cells were split at a ratio of 1:4 using 0.05% trypsin every 48 hours. Primary cardiac fibroblasts were obtained from 2-4-day-old Sprague Dawley rats, according to previously described protocols (cat. #L K003300, Worthington Biochemical Corp., Lakewood, N.J.) [Toraason M, Luken M E, Breitenstein M, Krueger J A, Biagini R E. Comparative toxicity of allylamine and acrolein in cultured myocytes and fibroblasts from neonatal rat heart. Toxicology. […]
# (§1) Cells were rinsed in PMS and grown in DMEM (cat. #11966-025, Gibco) for 2 hours prior to initiating hypoxia (simulated ischemia). […] Three different time points were adopted for each of the three cell lines according to the severity of cell death under hypoxia determined by LDH release: for H9C2 cell line: 8 hr; 16 hr; 24 hr; for HL-1 cell line: 4 hr; 8 hr; 12 hr; for cardiac fibroblast cell line: 16 hr; 32 hr; 48 hr.
# (§2) Cell death was first determined using an LDH release assay (cat. #630117, Clontech), according to the manufacturer's instructions. […] Caspase 3/7 activity was next determined using a commercial Caspase 3/7 activity kit (Cat. #G8091, Promega, Madison, Wis. 53711) in a 384 well plate (Cat. #781903, Greiner bio-one) according to the manufacturer's instructions. […] The resulting cell lysates (25 μl, with 0.6 ug total protein) and Caspase-Glo 3/7 Reagent were added to each well in a 1:1 ratio and the luminescence was read (CLARIOstar, BMG LABTECH GmbH). […]
# C57BL/6 mice = assay: Conscious echocardiography of cardiac function after acute myocardial infarction (permanent LAD ligation)
# Excerpt: Eight to ten week old C57BL/6 mice (25-30 g) were obtained from Charles River (Wilmington, Mass.) and maintained for at least 7 days with free access to standard rodent food and water. Myocardial infarction was induced by permanent ligation of the left anterior descending (LAD) coronary artery as described previously [Maejima Y, Kyoi S, Zhai P, Liu T, Li H, Ivessa A, et al. Mst1 inhibits autophagy by promoting the interaction between Beclin1 and Bcl-2. Nature Medicine. 2013; 19:1478-88; Qian L, Huang Y, Spencer C I, Foley A, Vedantham V, Liu L, et al. In vivo reprogramming of murine cardiac fibroblasts into induced cardiomyocytes. Nature. 2012; 485:593-8]. Post-surgery, mice were immediately treated with lidocaine (6 mg/kg IM) and atropine (0.04-0.10 mg/kg IM) upon surgical closure, followed by lidocaine and atropine every 2-4 hours for the first 24 hours to prevent arrhythmias. Post-anesthesia, mice were given 0.1 mg/kg buprenorphine every 12 hours for the first 48 hours. […] Cardiac function was measured by conscious echocardiography using a Vevo 2100 ultrasound biomicrscopy system (VisualSonics, Inc., Toronto, Canada) at baseline, 1, 7, and 14 days, as previously described [Oakley R H, Ren R, Cruz-Topete D, Bird G S, Myers P H, Boyle M C, et al. Essential role of stress hormone signaling in cardiomyocytes for the prevention of heart disease. Proc Natl Acad Scie USA. 2013; 110:17035-40; Willis M S, Homeister J W, Rosson G B, Annayev Y, Holley D, Holly S P, et al. Functional redundancy of SWI/SNF catalytic subunits in maintaining vascular endothelial cells in the adult heart. Circulation Res. 2012; 111:e111-22; Willis M S, Schisler J C, Li L, Rodriguez J E, Hilliard E G, Charles P C, et al. Cardiac muscle ring finger-1 increases susceptibility to heart failure in vivo. Circulation Res. 2009; 105:80-8].
# Echocardiography was used to follow cardiac function and morphometry prior to the surgical induction of an acute myocardial infarction (AMI) induced by thoracotomy and ligation of the left anterior descending coronary artery in C57BL/6 mice. Cardiac function was then followed at 7 and 14 days post-AMI (FIG. 1A).
# H9C2 cells = assay: Caspase 3/7 activity in H9C2 cells challenged with 1% hypoxia; format: cell-based, rat; details: 100 μM, 16 and 24 hours
# Experimental: H9C2 is a myoblast cell line derived from rat myocardium obtained from ATCC® (CRL-1446, ATCC, Manassas, Va.) and cultured according to the recommended protocols. Briefly, cells were maintained at 37° C. with 5% CO2 in DMEM supplemented with 10% fetal bovine serum and antibiotics (100 U/ml penicillin, […] streptomycin) and split at a ratio of 1:4 using 0.05% trypsin every 36 hours. […]
# as §1, §2
# mouse vein graft model = details: Muto et al. 2012; cited from earlier work
sequence,measurement,setting,value
YARAAARQARAKALARQLGVAA [MMI-0100],LDH release,"HL1 cells; 100 μM only, 8 hours",enhanced
same,LDH release in normoxic conditions,"HL1 cells; 100 μM, normoxia (FIG. 11B)",unexpectedly inhibited
same,LDH release,"HL1 cells; 20 and 100 μM, 4 hours",significantly enhanced
same,LDH release in normoxic conditions,"HL1 cells; absence of hypoxia, 4 hours",did not enhance LDH release
same,LV dilation: LVID; d decreased,"C57BL/6 mice; AMI mice treated with MMI-0100, compared to sham, vs. 40% without MMI-0100",29%
same,LV dilation: LV Volume; d decreased,"C57BL/6 mice; AMI mice treated with MMI-0100, compared to sham, vs. 130% without MMI-0100",88%
same,cardiac function compared to untreated AMI mice,"C57BL/6 mice; AMI mice, 50 μg/kg/day intraperitoneally, first dose 30 minutes after LAD ligation, 1 and 2 weeks after AMI",significantly greater function
same,"effect on cardiac function, MMI-0100 alone","C57BL/6 mice; mice without AMI, daily MMI-0100 intraperitoneally for 14 days",did not have any effect
same,caspase 3/7 activity,H9C2 cells,inhibited
same,inflammation and fibrosis in intimal hyperplasia,mouse vein graft model,inhibits inflammation and fibrosis
